Assay results taken from US9067977B2, “Peptides derivatized with A-B-C-D- and their therapeutical use” (Novo Nordisk A/S, priority 2007, dated 2015).
Starred links: 1 amine or outer side, 2 acyl side, 3 side chain; linkers in the order of their positions; H or OH if unused. Non-standard residues stand in square brackets, D forms with d. Residues, ends and D or L forms follow the SMILES beside them. Groups on a side chain read outwards from the residue. *: point of attachment. C20 diacid = O=C(O)CCCCCCCCCCCCCCCCCCC(=O)*; γGlu = O=C(O)[C@H](CCC(=O)[*:2])N[*:1]; Desaminohistidyl = O=C(CCc1c[nH]cn1)*; βAsp = O=C(O)[C@H](CC(=O)[*:2])N[*:1]; Trx = NC[C@H]1CC[C@H](C(=O)O)CC1; AEEA = NCCOCCOCC(=O)O; Aib = CC(C)(N)C(=O)O; Inp = O=C(O)C1CCNCC1

Biological target: human serum albumin (HSA) (Homo sapiens, UniProt P02768)
Sequence (P02768 25-609): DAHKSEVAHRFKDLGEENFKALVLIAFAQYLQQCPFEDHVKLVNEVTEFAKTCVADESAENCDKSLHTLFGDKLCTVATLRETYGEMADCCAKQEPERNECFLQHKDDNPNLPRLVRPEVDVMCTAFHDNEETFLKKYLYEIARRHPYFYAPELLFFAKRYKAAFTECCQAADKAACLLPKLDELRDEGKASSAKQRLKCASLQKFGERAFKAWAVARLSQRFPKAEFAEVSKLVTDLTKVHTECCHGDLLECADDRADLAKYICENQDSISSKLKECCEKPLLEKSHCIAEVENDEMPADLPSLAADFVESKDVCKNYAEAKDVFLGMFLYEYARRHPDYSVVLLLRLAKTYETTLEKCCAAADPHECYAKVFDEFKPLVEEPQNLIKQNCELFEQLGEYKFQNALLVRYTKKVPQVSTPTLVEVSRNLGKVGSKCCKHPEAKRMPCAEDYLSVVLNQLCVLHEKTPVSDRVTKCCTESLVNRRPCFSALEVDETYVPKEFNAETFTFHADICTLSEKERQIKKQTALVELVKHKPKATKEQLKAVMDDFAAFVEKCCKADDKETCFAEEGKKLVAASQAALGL
Test: Albumin binding affinity, competition scintillation proximity assay
Conditions: for EC50 at 20 h: human, pH 7.4
Method: Streptavidin-SPA beads (GE Healthcare RPNQ0009) were incubated with biotinylated HSA for 5 hours. The beads were washed with buffer to remove unbound HSA. […] After 20 hours of gentle rocking at room temperature the plates were centrifuged and counted on a TopCounter.

SMILES | EC50 | further results
CC[C@H](C)[C@H](NC(=O)[C@H](Cc1ccccc1)NC(=O)[C@H](CCC(=O)O)NC(=O)[C@H](CCCNC(=N)N)NC(=O)[C@H](C)NC(=O)[C@H](C)NC(=O)[C@H](CCC(N)=O)NC(=O)[C@H](CCC(=O)O)NC(=O)[C@H](CCC(=O)O)NC(=O)[C@H](CC(C)C)NC(=O)[C@H](Cc1ccc(O)cc1)NC(=O)[C@H](CO)NC(=O)[C@H](CO)NC(=O)[C@@H](NC(=O)[C@H](CC(=O)O)NC(=O)[C@H](CO)NC(=O)[C@@H](NC(=O)[C@H](Cc1ccccc1)NC(=O)[C@@H](NC(=O)CNC(=O)[C@H](CCC(=O)O)NC(=O)[C@H](C)NC(=O)CCc1c[nH]cn1)[C@@H](C)O)[C@@H](C)O)C(C)C)C(=O)N[C@@H](C)C(=O)N[C@@H](Cc1c[nH]c2ccccc12)C(=O)N[C@@H](CC(C)C)C(=O)N[C@H](C(=O)N[C@@H](CCCNC(=N)N)C(=O)NCC(=O)N[C@@H](CCCNC(=N)N)C(=O)N[C@@H](CCCCNC(=O)COCCOCCNC(=O)COCCOCCNC(=O)CC[C@H](NC(=O)[C@H]1CC[C@H](CNC(=O)CCCCCCCCCCCCCCCCCCC(=O)O)CC1)C(=O)O)C(=O)O)C(C)C [Example 26, N-epsilon37-[2-(2-{2-[2-(2-{2-[(S)-4-Carboxy-4-({trans-4-[(19-carboxy-nonadecanoylamino)methyl]cyclohexanecarbonyl}amino)butyrylamino]ethoxy}ethoxy)acetylamino]ethoxy}ethoxy)acetyl][DesaminoHis7,Glu22,Arg26,Arg34,Lys37]GLP-1-(7-37)] | 800 to 2000 nM | 
CC[C@H](C)[C@H](NC(=O)[C@H](Cc1ccccc1)NC(=O)[C@H](CCC(=O)O)NC(=O)[C@H](CCCNC(=N)N)NC(=O)[C@H](C)NC(=O)[C@H](C)NC(=O)[C@H](CCC(N)=O)NC(=O)[C@H](CCC(=O)O)NC(=O)[C@H](CCC(=O)O)NC(=O)[C@H](CC(C)C)NC(=O)[C@H](Cc1ccc(O)cc1)NC(=O)[C@H](CO)NC(=O)[C@H](CO)NC(=O)[C@@H](NC(=O)[C@H](CC(=O)O)NC(=O)[C@H](CO)NC(=O)[C@@H](NC(=O)[C@H](Cc1ccccc1)NC(=O)[C@@H](NC(=O)CNC(=O)[C@H](CCC(=O)O)NC(=O)[C@H](C)NC(=O)Cc1c[nH]cn1)[C@@H](C)O)[C@@H](C)O)C(C)C)C(=O)N[C@@H](C)C(=O)N[C@@H](Cc1c[nH]c2ccccc12)C(=O)N[C@@H](CC(C)C)C(=O)N[C@H](C(=O)N[C@@H](CCCNC(=N)N)C(=O)NCC(=O)N[C@@H](CCCNC(=N)N)C(=O)N[C@@H](CCCCNC(=O)COCCOCCNC(=O)COCCOCCNC(=O)CC[C@H](NC(=O)[C@H]1CC[C@H](CNC(=O)CCCCCCCCCCCCCCCCCCC(=O)O)CC1)C(=O)O)C(=O)O)C(C)C [Example 54, N-alpha8-[2-(4-imidazolyl)acetyl] N-epsilon37-[2-(2-{2-[2-(2-{2-[(S)-4-Carboxy-4-({trans-4-[(19-carboxynonadecanoylamino)methyl]cyclohexanecarbonyl}amino)butyrylamino]ethoxy}ethoxy)acetylamino]ethoxy}ethoxy)acetyl][Glu22,Arg26,Arg34,Lys37]GLP-1-(8-37)] |  | EC50 at 20 h: 150 to 300 nM
CC[C@H](C)[C@H](NC(=O)[C@H](Cc1ccccc1)NC(=O)[C@H](CCC(=O)O)NC(=O)[C@H](CCCNC(=N)N)NC(=O)[C@H](C)NC(=O)[C@H](C)NC(=O)[C@H](CCC(N)=O)NC(=O)[C@H](CCC(=O)O)NC(=O)[C@H](CCC(=O)O)NC(=O)[C@H](CC(C)C)NC(=O)[C@H](Cc1ccc(O)cc1)NC(=O)[C@H](CO)NC(=O)[C@H](CO)NC(=O)[C@@H](NC(=O)[C@H](CC(=O)O)NC(=O)[C@H](CO)NC(=O)[C@@H](NC(=O)[C@H](Cc1ccccc1)NC(=O)[C@@H](NC(=O)CNC(=O)[C@H](CCC(=O)O)NC(=O)[C@H](C)NC(=O)CCc1c[nH]cn1)[C@@H](C)O)[C@@H](C)O)C(C)C)C(=O)N[C@@H](C)C(=O)N[C@@H](Cc1c[nH]c2ccccc12)C(=O)N[C@@H](CC(C)C)C(=O)N[C@H](C(=O)N[C@@H](CCCNC(=N)N)C(=O)NCC(=O)N[C@@H](CCCNC(=N)N)C(=O)NCC(=O)N[C@@H](CCCCNC(=O)COCCOCCNC(=O)COCCOCCNC(=O)CC[C@H](NC(=O)C1CCN(C(=O)CCCCCCCCCCCCCCCCCCC(=O)O)CC1)C(=O)O)C(N)=O)C(C)C [Example 14, [DesaminoHis7,Glu22,Arg26,Arg34]GLP-1-(7-37)Lys[2-(2-[2-(2-[2-(2-((S)-4-[1-[19-Carboxynonadecanoyl]piperidine-4-carbonylamino]-4-carboxybutyrylamino)ethoxy)ethoxy]acetylamino)ethoxy]ethoxy)acetyl]amide] (Desaminohistidyl-AEGTFTSDVSSYLEEQAAREFIAWLVRGRGK([AEEA-AEEA-γGlu-Inp-C20 diacid])-NH2) | 300 to 800 nM | 
CC[C@H](C)[C@H](NC(=O)[C@H](Cc1ccccc1)NC(=O)[C@H](CCC(=O)O)NC(=O)[C@H](CCCNC(=N)N)NC(=O)[C@H](C)NC(=O)[C@H](C)NC(=O)[C@H](CCC(N)=O)NC(=O)[C@H](CCC(=O)O)NC(=O)[C@H](CCC(=O)O)NC(=O)[C@H](CC(C)C)NC(=O)[C@H](Cc1ccc(O)cc1)NC(=O)[C@H](CO)NC(=O)[C@H](CO)NC(=O)[C@@H](NC(=O)[C@H](CC(=O)O)NC(=O)[C@H](CO)NC(=O)[C@@H](NC(=O)[C@H](Cc1ccccc1)NC(=O)[C@@H](NC(=O)CNC(=O)[C@H](CCC(=O)O)NC(=O)C(C)(C)NC(=O)[C@@H](N)Cc1c[nH]cn1)[C@@H](C)O)[C@@H](C)O)C(C)C)C(=O)N[C@@H](C)C(=O)N[C@@H](CCCCNC(=O)COCCOCCNC(=O)COCCOCCNC(=O)C[C@H](NC(=O)C1CCN(C(=O)CCCCCCCCCCCCCCCCCCC(=O)O)CC1)C(=O)O)C(=O)N[C@@H](CC(C)C)C(=O)N[C@H](C(=O)N[C@@H](CCCNC(=N)N)C(=O)NCC(=O)N[C@@H](CCCNC(=N)N)C(=O)NCC(=O)O)C(C)C [Example 15, N-epsilon31-(2-{2-[2-(2-{2-[2-((S)-3-Carboxy-3-{[1-(19-carboxy-nonadecanoyl)piperidine-4-carbonyl]amino}propionylamino)ethoxy]ethoxy}acetylamino)ethoxy]ethoxy}acetyl)[Aib8,Glu22,Arg26,Lys31,Arg34]GLP-1-(7-37)] (H-H[Aib]EGTFTSDVSSYLEEQAAREFIAK([AEEA-AEEA-βAsp-Inp-C20 diacid])LVRGRG-OH) | 150 to 300 nM | 
CC[C@H](C)[C@H](NC(=O)[C@H](Cc1ccccc1)NC(=O)[C@H](CCC(=O)O)NC(=O)[C@H](CCCNC(=N)N)NC(=O)[C@H](C)NC(=O)[C@H](C)NC(=O)[C@H](CCC(N)=O)NC(=O)[C@H](CCC(=O)O)NC(=O)[C@H](CCC(=O)O)NC(=O)[C@H](CC(C)C)NC(=O)[C@H](Cc1ccc(O)cc1)NC(=O)[C@H](CO)NC(=O)[C@H](CO)NC(=O)[C@@H](NC(=O)[C@H](CC(=O)O)NC(=O)[C@H](CO)NC(=O)[C@@H](NC(=O)[C@H](Cc1ccccc1)NC(=O)[C@@H](NC(=O)CNC(=O)[C@H](CCC(=O)O)NC(=O)[C@H](C)NC(=O)CCc1c[nH]cn1)[C@@H](C)O)[C@@H](C)O)C(C)C)C(=O)N[C@@H](C)C(=O)N[C@@H](Cc1c[nH]c2ccccc12)C(=O)N[C@@H](CC(C)C)C(=O)N[C@H](C(=O)N[C@@H](CCCNC(=N)N)C(=O)NCC(=O)N[C@@H](CCCNC(=N)N)C(=O)NCC(=O)N[C@@H](CCCCNC(=O)COCCOCCNC(=O)COCCOCCNC(=O)CC[C@H](NC(=O)[C@H]1CC[C@H](CNC(=O)CCCCCCCCCCCCCCCCCCC(=O)O)CC1)C(=O)O)C(N)=O)C(C)C [Example 27, [DesaminoHis7,Glu22,Arg26,Arg34]GLP-1-(7-37)Lys[2-(2-{2-[2-(2-{2-[4-Carboxy-4-({trans-4-[(19-carboxy-nonadecanoylamino)methyl]cyclohexanecarbonyl}amino)butyrylamino]ethoxy}ethoxy)acetylamino]ethoxy}ethoxy)acetyl]-amide] (Desaminohistidyl-AEGTFTSDVSSYLEEQAAREFIAWLVRGRGK([AEEA-AEEA-γGlu-Trx-C20 diacid])-NH2) |  | EC50 at 20 h (biotinylated human serum albumin on streptavidin-SPA beads): 800 to 2000 nM
CC[C@H](C)[C@H](NC(=O)[C@H](Cc1ccccc1)NC(=O)[C@H](CCC(=O)O)NC(=O)[C@H](CCCNC(=N)N)NC(=O)[C@H](C)NC(=O)[C@H](C)NC(=O)[C@H](CCC(N)=O)NC(=O)[C@H](CCC(=O)O)NC(=O)[C@H](CCC(=O)O)NC(=O)[C@H](CC(C)C)NC(=O)[C@H](Cc1ccc(O)cc1)NC(=O)[C@H](CO)NC(=O)[C@H](CO)NC(=O)[C@@H](NC(=O)[C@H](CC(=O)O)NC(=O)[C@H](CO)NC(=O)[C@@H](NC(=O)[C@H](Cc1ccccc1)NC(=O)[C@@H](NC(=O)CNC(=O)[C@H](CCC(=O)O)NC(=O)C(C)(C)NC(=O)[C@@H](N)Cc1c[nH]cn1)[C@@H](C)O)[C@@H](C)O)C(C)C)C(=O)N[C@@H](C)C(=O)N[C@@H](Cc1c[nH]c2ccccc12)C(=O)N[C@@H](CC(C)C)C(=O)N[C@H](C(=O)N[C@@H](CCCNC(=N)N)C(=O)NCC(=O)N[C@@H](CCCNC(=N)N)C(=O)N[C@@H](CCCCNC(=O)COCCOCCNC(=O)CC[C@H](NC(=O)CC[C@H](NC(=O)CCCCCCCCCCCNC(=O)CCCS(=O)(=O)NC(=O)CCCCCCCCCCCCCCCc1nnn[nH]1)C(=O)O)C(=O)O)C(N)=O)C(C)C [Example 48, N-epsilon37-[2-(2-{2-[(S)-4-Carboxy-4-((S)-4-carboxy-4-{12-[4-(16-(1H-tetrazol-5-yl)hexadecanoylsulfamoyl)butyrylamino]dodecanoylamino}butyrylamino)butyrylamino]ethoxy}ethoxy)acetyl][Aib8,Glu22,Arg26,Arg34,Lys37]GLP-1-(7-37)amide] | 800 to 2000 nM | 
